From patent US11840686B2, “Modulation of prekallikrein (PKK) expression” (Ionis Pharmaceuticals, Inc., priority 2013, dated 2023)
Strand notation (5' to 3'): a small letter for the sugar, then the base; units joined by * are phosphorothioate-linked, units joined directly phosphodiester-linked; [ ] holds rarer units or linkages, { } end groups; capitals alone tell only the bases. e = 2'-O-(2-methoxyethyl) (MOE); k = constrained ethyl (cEt); [5mC] = 5-methylcytosine; d = 2'-deoxy (DNA)

test system: human PKK mRNA; experiment: Antisense inhibition of human PKK mRNA in HepaRG cells, 1,000 nM, MOE/deoxy/cEt oligonucleotides (Example 3); assay type: cell-based; settings: Table 30; human PKK mRNA, HepaRG cells, 1,000 nM antisense oligonucleotide
Procedure, shortened: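 Readout is percent PKK mRNA reduction against untreated controls, by real-time PCR (RTS3454) adjusted for total RNA via RIBOGREEN. Oligonucleotides, phosphorothioate gapmers of 16 nucleosides with cEt, MOE and deoxy sugars, were delivered at 1,000 nM by electroporation to 20,000 HepaRG cells/well for roughly 24 h.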

Going from “548394 (eG*eG*k[5mC]*dA*dG*dG*dA*dG*dA*d[5mC]*dT*d[5mC]*d[5mC]*kG*kT*eG; antisense) [compound 548394]” to “548395 (eA*eT*k[5mC]*d[5mC]*dT*dT*d[5mC]*d[5mC]*d[5mC]*d[5mC]*dT*d[5mC]*dG*k[5mC]*kA*eA; antisense) [compound 548395]”, the “% inhibition” value falls from 25% to 0%.

Going from “548396 (eT*eA*kA*dT*dG*dA*dG*dT*dG*dG*dG*dT*dT*kA*kG*eG; antisense) [compound 548396]” to “548397 (eG*eG*kA*dG*d[5mC]*dA*dG*dT*dG*d[5mC]*dA*dG*dG*kT*kA*eA; antisense) [compound 548397]”, the “% inhibition” value rises from 0% to 1%.

Compared with “548398 (eA*eT*kA*dG*dG*d[5mC]*dA*dA*dT*dT*dG*dT*dT*k[5mC]*k[5mC]*eT; antisense) [compound 548398]”, “548399 (eA*eG*kT*d[5mC]*d[5mC]*dT*dA*d[5mC]*dA*dA*dT*dT*dA*k[5mC]*k[5mC]*eA; antisense) [compound 548399]” is lower in “% inhibition” value: 55% for the first, 11% for the second.

Going from “548400 (eG*eG*kG*d[5mC]*dT*d[5mC]*d[5mC]*dT*dA*dT*dT*d[5mC]*d[5mC]*kA*k[5mC]*e[5mC]; antisense) [compound 548400]” to “548401 (eG*e[5mC]*k[5mC]*dA*dG*d[5mC]*dT*dA*dT*dG*dG*dG*dA*kA*k[5mC]*eA; antisense) [compound 548401]”, the “% inhibition” value rises from 13% to 71%.

First: 548402 (e[5mC]*e[5mC]*k[5mC]*d[5mC]*dA*dT*d[5mC]*dT*d[5mC]*dG*dA*dA*dG*k[5mC]*k[5mC]*e[5mC]; antisense) [compound 548402]
Second: 548403 (eG*eA*kG*dT*dA*d[5mC]*dA*dT*dT*dG*dG*dG*d[5mC]*k[5mC]*k[5mC]*eA; antisense) [compound 548403]
The “% inhibition” value of the first is higher: 45% for the first, 25% for the second.

Compared with “548404 (eG*eA*kG*d[5mC]*d[5mC]*dT*dT*d[5mC]*d[5mC]*dG*d[5mC]*d[5mC]*dT*k[5mC]*kT*e[5mC]; antisense) [compound 548404]”, “548405 (e[5mC]*eG*kG*dA*d[5mC]*d[5mC]*dT*dT*d[5mC]*dA*dT*d[5mC]*dT*kT*k[5mC]*eA; antisense) [compound 548405]” is lower in “% inhibition” value: 37% for the first, 35% for the second.

First: 548406 (eT*e[5mC]*kT*dA*dG*dA*dG*dG*d[5mC]*d[5mC]*dG*d[5mC]*d[5mC]*kT*kG*e[5mC]; antisense) [compound 548406]
Second: 548407 (e[5mC]*e[5mC]*kT*dA*dT*dA*dA*d[5mC]*dT*dG*d[5mC]*dT*dG*k[5mC]*kT*e[5mC]; antisense) [compound 548407]
The “% inhibition” value of the first is lower: 0% for the first, 24% for the second.

Going from “548408 (antisense eT*eA*kT*d[5mC]*dA*d[5mC]*dT*dG*dT*dA*d[5mC]*dT*dA*kG*kT*eT) [compound 548408]” to “548411 (antisense e[5mC]*eA*kG*dT*dA*dT*d[5mC]*dA*d[5mC]*dT*dG*dT*dA*k[5mC]*kT*eA) [compound 548411]”, the “% inhibition” value rises from 47% to 72%.

Going from “548412 (antisense eT*eA*kA*d[5mC]*dA*dG*dT*dA*dT*d[5mC]*dA*d[5mC]*dT*kG*kT*eA) [compound 548412]” to “548413 (antisense e[5mC]*eT*kA*dA*d[5mC]*dA*dG*dT*dA*dT*d[5mC]*dA*d[5mC]*kT*kG*eT) [compound 548413]”, the “% inhibition” value rises from 17% to 55%.

Going from “548414 (antisense eT*e[5mC]*kT*dA*dA*d[5mC]*dA*dG*dT*dA*dT*d[5mC]*dA*k[5mC]*kT*eG) [compound 548414]” to “548415 (antisense eA*eT*kA*dA*d[5mC]*dT*d[5mC]*dT*dA*dA*d[5mC]*dA*dG*kT*kA*eT) [compound 548415]”, the “% inhibition” value falls from 20% to 0%.

Compared with “548416 (antisense e[5mC]*eT*kA*dT*dA*dA*d[5mC]*dT*d[5mC]*dT*dA*dA*d[5mC]*kA*kG*eT) [compound 548416]”, “548417 (antisense eA*e[5mC]*kT*dG*dT*d[5mC]*d[5mC]*dT*dA*dT*dA*dA*d[5mC]*kT*k[5mC]*eT) [compound 548417]” is higher in “% inhibition” value: 9% for the first, 24% for the second.

First: 548418 (antisense eT*eA*kT*dA*dT*d[5mC]*dA*d[5mC]*dT*dG*dT*d[5mC]*d[5mC]*kT*kA*eT) [compound 548418]
Second: 548419 (antisense e[5mC]*e[5mC]*kT*dA*dT*dA*dT*d[5mC]*dA*d[5mC]*dT*dG*dT*k[5mC]*k[5mC]*eT) [compound 548419]
The “% inhibition” value of the first is lower: 39% for the first, 52% for the second.

Going from “548420 (antisense eT*e[5mC]*k[5mC]*dT*dA*dT*dA*dT*d[5mC]*dA*d[5mC]*dT*dG*kT*k[5mC]*e[5mC]) [compound 548420]” to “548421 (antisense e[5mC]*eA*k[5mC]*dT*dG*dT*d[5mC]*d[5mC]*dT*dA*dT*dA*dT*k[5mC]*kA*e[5mC]) [compound 548421]”, the “% inhibition” value falls from 58% to 56%.

Going from “548423 (antisense eA*eG*kT*dA*dT*d[5mC]*dA*d[5mC]*dT*dG*dT*d[5mC]*d[5mC]*kT*kA*eT) [compound 548423]” to “548426 (antisense eT*eA*kT*dA*dA*d[5mC]*dA*dG*dT*dA*dT*d[5mC]*dA*k[5mC]*kT*eG) [compound 548426]”, the “% inhibition” value falls from 72% to 14%.

Going from “548427 (antisense e[5mC]*eT*kA*dT*dA*dA*d[5mC]*dA*dG*dT*dA*dT*d[5mC]*kA*k[5mC]*eT) [compound 548427]” to “548428 (antisense eT*eA*kA*d[5mC]*dT*dA*dT*dA*dA*d[5mC]*dA*dG*dT*kA*kT*e[5mC]) [compound 548428]”, the “% inhibition” value falls from 24% to 0%.

Compared with “548429 (antisense eT*eA*kT*dA*dA*d[5mC]*dT*dA*dT*dA*dA*d[5mC]*dA*kG*kT*eA) [compound 548429]”, “548430 (antisense e[5mC]*e[5mC]*kT*dA*dT*dA*dA*d[5mC]*dT*dA*dT*dA*dA*k[5mC]*kA*eG) [compound 548430]” is higher in “% inhibition” value: 0% for the first, 21% for the second.

Compared with “548431 (antisense eT*eA*k[5mC]*d[5mC]*dT*dA*dT*dA*dA*d[5mC]*dT*d[5mC]*dT*kA*kA*e[5mC]) [compound 548431]”, “548432 (antisense eA*e[5mC]*kT*dG*dT*dA*d[5mC]*d[5mC]*dT*dA*dT*dA*dA*k[5mC]*kT*e[5mC]) [compound 548432]” is higher in “% inhibition” value: 9% for the first, 43% for the second.

Compared with “548433 (antisense eT*eA*kT*d[5mC]*dA*d[5mC]*dT*dG*dT*dA*d[5mC]*d[5mC]*dT*kA*kT*eA) [compound 548433]”, “548434 (antisense eA*e[5mC]*kA*dA*dT*dA*dT*d[5mC]*dA*d[5mC]*dT*dG*dT*kA*k[5mC]*e[5mC]) [compound 548434]” is higher in “% inhibition” value: 33% for the first, 63% for the second.

Compared with “548435 (antisense eA*eA*k[5mC]*dA*dA*dT*dA*dT*d[5mC]*dA*d[5mC]*dT*dG*kT*kA*e[5mC]) [compound 548435]”, “548436 (antisense eA*eT*kA*dT*d[5mC]*dA*d[5mC]*dT*dG*dT*dA*d[5mC]*d[5mC]*kT*kG*eT) [compound 548436]” is lower in “% inhibition” value: 19% for the first, 8% for the second.

Going from “548437 (antisense eT*eA*kT*dA*dT*d[5mC]*dA*d[5mC]*dT*dG*dT*dA*d[5mC]*k[5mC]*kT*eG) [compound 548437]” to “548438 (antisense e[5mC]*eT*kA*dT*dA*dT*d[5mC]*dA*d[5mC]*dT*dG*dT*dA*k[5mC]*k[5mC]*eT) [compound 548438]”, the “% inhibition” value falls from 74% to 38%.

First: 548439 (antisense e[5mC]*e[5mC]*kT*dA*dT*dA*dT*d[5mC]*dA*d[5mC]*dT*dG*dT*kA*k[5mC]*e[5mC]) [compound 548439]
Second: 548440 (antisense e[5mC]*e[5mC]*kT*dA*dT*dA*dA*d[5mC]*dA*dG*dT*dA*dT*k[5mC]*kA*e[5mC]) [compound 548440]
The “% inhibition” value of the first is higher: 46% for the first, 32% for the second.

First: 548441 (antisense eT*e[5mC]*k[5mC]*dT*dA*dT*dA*dA*d[5mC]*dA*dG*dT*dA*kT*k[5mC]*eA) [compound 548441]
Second: 548442 (antisense eT*eT*k[5mC]*d[5mC]*dT*dA*dT*dA*dA*d[5mC]*dA*dG*dT*kA*kT*e[5mC]) [compound 548442]
The “% inhibition” value of the first is higher: 42% for the first, 17% for the second.

Going from “548443 (antisense eG*eT*kT*dT*d[5mC]*d[5mC]*dT*dA*dT*dA*dA*d[5mC]*dA*kG*kT*eA) [compound 548443]” to “548444 (antisense e[5mC]*eT*kA*dT*dG*dT*d[5mC]*dA*d[5mC]*dT*dG*dT*dA*k[5mC]*k[5mC]*eT) [compound 548444]”, the “% inhibition” value rises from 12% to 43%.

Going from “548445 (antisense e[5mC]*e[5mC]*kT*dA*dT*dG*dT*d[5mC]*dA*d[5mC]*dT*dG*dT*kA*k[5mC]*e[5mC]) [compound 548445]” to “548446 (antisense eT*e[5mC]*k[5mC]*dT*dA*dT*dG*dT*d[5mC]*dA*d[5mC]*dT*dG*kT*kA*e[5mC]) [compound 548446]”, the “% inhibition” value falls from 62% to 16%.

First: 548447 (antisense e[5mC]*eA*k[5mC]*dT*dG*dT*d[5mC]*d[5mC]*dT*dA*dT*dG*dT*k[5mC]*kA*e[5mC]) [compound 548447]
Second: 548448 (eT*e[5mC]*kA*d[5mC]*dT*dG*dT*d[5mC]*d[5mC]*dT*dA*dT*dG*kT*k[5mC]*eA; antisense) [compound 548448]
The “% inhibition” value of the first is lower: 59% for the first, 61% for the second.

Going from “548449 (eA*eT*k[5mC]*dA*d[5mC]*dT*dG*dT*d[5mC]*d[5mC]*dT*dA*dT*kG*kT*e[5mC]; antisense) [compound 548449]” to “548450 (e[5mC]*eT*kA*d[5mC]*d[5mC]*dT*dA*dT*dA*dA*d[5mC]*dT*d[5mC]*kT*kA*eA; antisense) [compound 548450]”, the “% inhibition” value falls from 62% to 0%.

Going from “548451 (eG*eT*k[5mC]*d[5mC]*dT*dA*dT*dA*dA*d[5mC]*dT*dA*dT*kA*kA*e[5mC]; antisense) [compound 548451]” to “548452 (eT*eA*kT*dA*dT*d[5mC]*dA*d[5mC]*dT*dG*dT*dA*d[5mC]*k[5mC]*kT*eA; antisense) [compound 548452]”, the “% inhibition” value rises from 0% to 65%.
